Results taken from patent publication US11666577B2 (National Institute of Biological Sciences, Beijing, priority 2018, dated 2023).

What follows are compounds tested on HT-29 cells (assay: Necroptosis assay (TNF-α/Smac mimetic/z-VAD, TSZ-induced) in HT-29 cells). Conditions: Homo sapiens, HT-29, 24 h; read-out: EC50 (nM), potency in TSZ-induced necroptosis assays in HT-29 cells.
Assay type: cell-based, human
Method: Methods: HT-29 cells were cultured in McCoy's 5 A culture medium (Invitrogen). On day one, HT-29 cells were plated in 96-well assay plates at density of 2,500-3,500 cells per well. On day two, necrosis were induced by adding 20 ng/ml TNF-α (T), 100 nM Smac mimetic (S), and […] z-VAD (Z). At the same time, 10 mM compound from a chemical library of ˜200,000 compounds was delivered into each well. After 24 hrs treatment, cell viability was determined by measuring ATP level using the Cell Titer-Glo Luminescent Cell Viability Assay kit. A CellTiter-Glo Assay (Promega) was performed according to the manufacturer's instructions. Luminescence was recorded with a PerkinElmer EnSpire Multimode Plate Reader. Survived cells were normalized to those cells treated with DMSO. RIPA-56 was used as a positive control for screening necroptosis inhibitors. Data are represented as mean±standard deviation of duplicates.
In previous work, we performed a cell-based high-throughput screen to identify necroptosis inhibitors using a chemical library of ˜200,000 compounds and identified multiple compounds that protected human colorectal adenocarcinoma (HT-29) cells from TNF-α/Smac mimetic/Z-VAD-fmk (TSZ)-induced necroptosis.^[4]
The anti-necroptosis potency of compounds 7-12 and 14-18 was evaluated in the HT-29 cell line; the EC50 values are shown in Table B.
[a] Necroptosis was induced in HT-29 cells for 24 h; the EC50 values given here are the mean values of at least three independent analyses.

Compound | EC50
C#CCn1c(=O)n(C)c(=O)c2c1nc(S(C)(=O)=O)n2C [Compound 12] | 152 ± 23 nM

Same assay, conditions: Homo sapiens; Series 1 (Table 1) compounds 1-146; HT-29 cells, TNF-α/Smac mimetic/z-VAD, 24 hrs, cell viability by ATP level; read-out: Series 1 compound necroptosis activity

Compound | EC50
Cn1c(=O)c2c(nc(S(C)(=O)=O)n2C)n(C)c1=O [Compound 4, 1,3,7-trimethyl-8-(methylsulfonyl)-1H-purine-2,6(3H,7H)-dione] | 1000 to 10000 nM
CCS(=O)(=O)c1nc2c(c(=O)n(C)c(=O)n2C)n1C [Compound 7, 8-(ethylsulfonyl)-1,3,7-trimethyl-1H-purine-2,6(3H,7H)-dione] | 1000 to 100000 nM
CCCS(=O)(=O)c1nc2c(c(=O)n(C)c(=O)n2C)n1C [Compound 10, 1,3,7-trimethyl-8-(propylsulfonyl)-1H-purine-2,6(3H,7H)-dione] | 1000 to 100000 nM
Cn1c(=O)c2c(nc(S(=O)(=O)CC3CC3)n2C)n(C)c1=O [Compound 13, 8-(cyclopropylmethylsulfonyl)-1,3,7-trimethyl-1H-purine-2,6(3H,7H)-dione] | 1000 to 100000 nM
CC(C)S(=O)(=O)c1nc2c(c(=O)n(C)c(=O)n2C)n1C [Compound 18] | 1000 to 100000 nM
Cn1c(=O)c2c(nc(S(=O)(=O)Cc3ccccc3)n2C)n(C)c1=O [Compound 21, 8-(benzylsulfonyl)-1,3,7-trimethyl-1H-purine-2,6(3H,7H)-dione] | 1000 to 100000 nM

Same assay, conditions: Homo sapiens; Series 2 (Table 2) compounds; HT-29 necroptosis assay; read-out: Series 2 compound necroptosis activity

Compound | EC50
Cn1c(=O)c2c(nc(S(=O)(=O)CCCO)n2C)n(C)c1=O [Compound 3] | 100 to 10000 nM
COCCn1c(S(C)(=O)=O)nc2c1c(=O)n(C)c(=O)n2C [Compound 6] | 10000 to 100000 nM
Cn1c(=O)c2c(nc([S+](C)[O-])n2C)n(CC#Cc2cccc(O)c2)c1=O (stereo not shown) [Compound 8] | 1 to 100 nM
Cn1c(=O)c2c(nc(S(C)(=O)=O)n2C)n(CC#Cc2cccc(NC(=O)c3ccccc3)c2)c1=O [Compound 11] | 1 to 100 nM
COCCOCCNc1cccc(C#CCn2c(=O)n(C)c(=O)c3c2nc(S(C)(=O)=O)n3C)c1 [Compound 12] | 1 to 100 nM
Cn1c(=O)c2c(nc(S(C)(=O)=O)n2C)n(CC#Cc2cccc(NCc3ccccc3)c2)c1=O [Compound 13] | 1 to 100 nM
Cn1c(=O)c2c(nc(S(C)(=O)=O)n2C)n(CC#Cc2cccc(NCCN3CCOCC3)c2)c1=O [Compound 14] | 1 to 100 nM
CCCCCNc1cccc(C#CCn2c(=O)n(C)c(=O)c3c2nc(S(C)(=O)=O)n3C)c1 [Compound 16] | 100 to 10000 nM
Cn1c(=O)c2c(nc(S(C)(=O)=O)n2C)n(CC#Cc2cccc(NC(=O)CN3CCOCC3)c2)c1=O [Compound 17] | 1 to 100 nM
Cn1c(=O)c2c(nc(S(C)(=O)=O)n2C)n(CC#Cc2cccc(NCCN3CCCCC3)c2)c1=O [Compound 18] | 100 to 10000 nM
Cn1c(=O)c2c(nc(S(=O)(=O)CC3CC3)n2C)n(CC#Cc2cccc(NCCN3CCOCC3)c2)c1=O [Compound 19] | 1 to 100 nM
Cn1c(=O)c2c(nc(S(C)(=O)=O)n2C)n(CC#Cc2cc(F)cc(NC(=O)CN3CCOCC3)c2)c1=O [Compound 20] | 1 to 100 nM
COc1cc(C#CCn2c(=O)n(C)c(=O)c3c2nc(S(C)(=O)=O)n3C)cc(NCCN2CCOCC2)c1 [Compound 21] | 1 to 100 nM
Cn1c(=O)c2c(nc(S(=O)(=O)CC3CC3)n2C)n(CC#Cc2cc(NC(=O)CN3CCOCC3)ccc2Cl)c1=O [Compound 22] | 1 to 100 nM
Cn1c(=O)c2c(nc(S(C)(=O)=O)n2C)n(CC#Cc2ccc3[nH]c(=O)[nH]c3c2)c1=O [Compound 23] | 100 to 10000 nM
Cn1c(=O)c2c(nc(S(C)(=O)=O)n2C)n(CC#Cc2ccnc(N)n2)c1=O [Compound 24] | 1 to 100 nM
Cn1c(=O)c2c(nc(S(C)(=O)=O)n2C)n(CC#Cc2cc(NC(=O)CN3CCOCC3)cc(NC(=O)CN3CCOCC3)c2)c1=O [Compound 26] | 1 to 100 nM
Cn1c(=O)c2c(nc(S(C)(=O)=O)n2C)n(CC#Cc2cc(NC(=O)C3CC3)cc(NC(=O)C3CC3)c2)c1=O [Compound 27] | 1 to 100 nM
Cn1c(=O)c2c(nc(S(=O)(=O)CC3CC3)n2C)n(CC#Cc2cc(NC(=O)CN3CCOCC3)cc(NC(=O)CN3CCOCC3)c2)c1=O [Compound 28] | 1 to 100 nM
Cn1c(=O)c2c(nc(S(=O)(=O)CC3CC3)n2C)n(CC#Cc2cc(NC(=O)C3CC3)cc(NC(=O)C3CC3)c2)c1=O [Compound 30] | 1 to 100 nM
Cn1c(=O)c2c(nc(S(=O)(=O)CC3CC3)n2C)n(CC#Cc2ccnc(NC(=O)C3CC3)c2)c1=O [Compound 31] | 1 to 100 nM
Cn1c(=O)c2c(nc(S(=O)(=O)CC3CC3)n2C)n(CC#Cc2ccnc(NC(=O)CN3CCOCC3)c2)c1=O [Compound 32] | 1 to 100 nM
CCNc1cc(C#CCn2c(=O)n(C)c(=O)c3c2nc(S(=O)(=O)CC2CC2)n3C)ccn1 [Compound 33] | 1 to 100 nM

Same assay, conditions: Series 1 (Table 1) compounds 1-146; HT-29 cells, TNF-α/Smac mimetic/z-VAD, 24 hrs, cell viability by ATP level; read-out: Series 1 compound necroptosis activity

Compound | EC50
CSc1nc2c(c(=O)n(C)c(=O)n2C)n1C [Compound 2, 1,3,7-trimethyl-8-(methylthio)-1H-purine-2,6(3H,7H)-dione] | 1000 to 1e+06 nM
Cn1c(=O)c2c(nc([S+](C)[O-])n2C)n(C)c1=O (stereo not shown) [Compound 3, 1,3,7-trimethyl-8-(methylsulfinyl)-1H-purine-2,6(3H,7H)-dione] | 1000 to 1e+06 nM
CCSc1nc2c(c(=O)n(C)c(=O)n2C)n1C [Compound 5, 8-(ethylthio)-1,3,7-trimethyl-1H-purine-2,6(3H,7H)-dione] | 1000 to 1e+06 nM
CC[S+]([O-])c1nc2c(c(=O)n(C)c(=O)n2C)n1C (stereo not shown) [Compound 6, 8-(ethylsulfinyl)-1,3,7-trimethyl-1H-purine-2,6(3H,7H)-dione] | 1000 to 1e+06 nM
CCC[S+]([O-])c1nc2c(c(=O)n(C)c(=O)n2C)n1C (stereo not shown) [Compound 9, 1,3,7-trimethyl-8-(propylsulfinyl)-1H-purine-2,6(3H,7H)-dione] | 1000 to 1e+06 nM
Cn1c(=O)c2c(nc(S(=O)(=O)c3ccccc3)n2C)n(C)c1=O [Compound 20, 1,3,7-trimethyl-8-(phenylsulfonyl)-1H-purine-2,6(3H,7H)-dione] | 1000 to 1e+06 nM
Cn1c(=O)c2c(nc(S(=O)(=O)CCc3ccccc3)n2C)n(C)c1=O [Compound 22, 1,3,7-trimethyl-8-(phenethylsulfonyl)-1H-purine-2,6(3H,7H)-dione] | 1000 to 1e+06 nM
Cn1c(=O)c2c(nc(S(=O)(=O)Cc3ccc4ccccc4c3)n2C)n(C)c1=O [Compound 23, 1,3,7-trimethyl-8-(naphthalen-2-ylmethylsulfonyl)-1H-purine-2,6(3H,7H)-dione] | 1000 to 1e+06 nM
Cn1c(=O)c2c(nc(S(=O)(=O)Cc3cccc4ccccc34)n2C)n(C)c1=O [Compound 24, 1,3,7-trimethyl-8-(naphthalen-1-ylmethylsulfonyl)-1H-purine-2,6(3H,7H)-dione] | 1000 to 1e+06 nM
Cn1c(=O)c2c(nc(S(=O)(=O)CCc3cn(CCOCCOCCOCCNC(=O)CCCC[C@@H]4SCC5NC(=O)NC54)nn3)n2C)n(C)c1=O (stereo partly drawn) [Compound 25, 5-((4S)-2-oxohexahydro-1H-thieno[3,4-d]imidazol-4-yl)-N-(2-(2-(2-(2-(4-(2-(1,3,7-trimethyl-2,6-dioxo-2,3,6,7-tetrahydro-1H-purin-8-ylsulfonyl)ethyl)-1H-1,2,3-triazol-1-yl)ethoxy)ethoxy)ethoxy)ethyl)pentanamide] | 1000 to 1e+06 nM
Cn1c(=O)c2c(nc(S(=O)(=O)Cc3ccccc3F)n2C)n(C)c1=O [Compound 26, 8-(2-fluorobenzylsulfonyl)-1,3,7-trimethyl-1H-purine-2,6(3H,7H)-dione] | 1000 to 1e+06 nM
Cn1c(=O)c2c(nc(S(=O)(=O)Cc3cccc(F)c3)n2C)n(C)c1=O [Compound 27, 8-(3-fluorobenzylsulfonyl)-1,3,7-trimethyl-1H-purine-2,6(3H,7H)-dione] | 1000 to 1e+06 nM
Cn1c(=O)c2c(nc(S(=O)(=O)Cc3ccc(F)cc3)n2C)n(C)c1=O [Compound 28, 8-(4-fluorobenzylsulfonyl)-1,3,7-trimethyl-1H-purine-2,6(3H,7H)-dione] | 1000 to 1e+06 nM
Cn1c(=O)c2c(nc(S(=O)(=O)Cc3ccccc3Cl)n2C)n(C)c1=O [Compound 29, 8-(2-chlorobenzylsulfonyl)-1,3,7-trimethyl-1H-purine-2,6(3H,7H)-dione] | 1000 to 1e+06 nM
Cn1c(=O)c2c(nc(S(=O)(=O)Cc3cccc(Cl)c3)n2C)n(C)c1=O [Compound 30, 8-(3-chlorobenzylsulfonyl)-1,3,7-trimethyl-1H-purine-2,6(3H,7H)-dione] | 1000 to 1e+06 nM
Cn1c(=O)c2c(nc(S(=O)(=O)Cc3ccc(Cl)cc3)n2C)n(C)c1=O [Compound 31, 8-(4-chlorobenzylsulfonyl)-1,3,7-trimethyl-1H-purine-2,6(3H,7H)-dione] | 1000 to 1e+06 nM
Cn1c(=O)c2c(nc(S(=O)(=O)Cc3ccccc3Br)n2C)n(C)c1=O [Compound 32, 8-(2-bromobenzylsulfonyl)-1,3,7-trimethyl-1H-purine-2,6(3H,7H)-dione] | 1000 to 1e+06 nM
Cn1c(=O)c2c(nc(S(=O)(=O)Cc3cccc(Br)c3)n2C)n(C)c1=O [Compound 33, 8-(3-bromobenzylsulfonyl)-1,3,7-trimethyl-1H-purine-2,6(3H,7H)-dione] | 1000 to 1e+06 nM
Cn1c(=O)c2c(nc(S(=O)(=O)Cc3ccc(Br)cc3)n2C)n(C)c1=O [Compound 34, 8-(4-bromobenzylsulfonyl)-1,3,7-trimethyl-1H-purine-2,6(3H,7H)-dione] | 1000 to 1e+06 nM
